Consider 1 compound from paper PMC4545913, “Dual EZH2 and EHMT2 histone methyltransferase inhibition increases biological efficacy in breast cancer cells” (Clinical Epigenetics, 2015).

Assay type in all cases: cell-based
One assay concerns SPINK1. The assay can be described thus: qRT-PCR of SPINK1 mRNA in MDA-MB-231 cells. The following applies: MDA-MB-231, multiple doses and time points. On the procedure:
Following compound treatment of MDA-MB-231 for 48 h (in 6-well plates), media was removed and 1.5 ml of TRIzol (Invitrogen) was added directly to lyse cells and RNA was isolated according to the manufacturer’s instructions. Reverse transcription was done using the SuperScript III First-Strand Synthesis System (Invitrogen) according to the manufacturer’s instructions. Each measurement was done in triplicate, and the List of Primers can be found in Additional file 2: Table S1. For normalisation, we have used GAPDH and RNA pol II. Experiments were also done with the ‘Fast Sybr Green Cell-to-CT™-Kit’ according to the manufacturer’s instructions (Applied Biosystem). Fifteen thousand cells per 96 well were plated, and after 24 h, treated with compounds at various concentrations.
For qRT-PCR measurements the 2x iQ SYBR Green Supermix (Bio-Rad), 200nM Primers and 0.4μl of cDNA /per 20μl reaction was used. The measurement was done in low-white 96-well plates (Bio-Rad) on a CFX96 Real-time System/C1000 Thermal Cycler (Bio-Rad) with the following protocol: 95°C for 3’; 95°C for 10’’, 56°C for 10’’, 72°C for 30’’ 42 cycles followed by a melting curve from 72°C to 95°C.

A further assay relates to MDA-MB-231 cells. Description: MTT cell viability assay. The following applies: Homo sapiens. On the procedure: Fig. 1 MTT and mRNA levels in MDA-MB-231 cells after pharmacological inhibition and siRNA knockdown of EZH2 and EHMT2(G9a), individually and in combination. a Expression levels of KRT17, FBX032, JMJD3, EZH2, SPINK1 and EHMT2 were measured by qRT-PCR in the MDA-MB-231 cell line 48 h after transfection with siRNAs targeting EZH2 and EHMT2, both individually and in combination. All measurements were normalised to the fold-change (relative to GAPDH) in the mock transfection control. Error bars represent the mean ± SD of experiment performed in technical triplicate. b Expression levels of KRT17, FBX032, JMJD3 and SPINK1 were measured by qRT-PCR in the MDA-MB-231 cell line treated for 48 h with GSK343, UNC0638, and UNC0638 (at 7.5 μM) with increasing doses of GSK343. Each group has been compared to the untreated sample following normalisation to GAPDH. Error bars represent the mean ± SD of experiment performed in technical triplicate. c MTT assay for cell viability of MDA-MB-231 cells after treatment. MDA-MB-231 cells were seeded in 96 well plates. After 24 h, increasing doses of GSK343, UNC0638 or combination treatments (1, 2.5, 5, 7.5, 10 and 15 μM) were added to cells. Control was media with 0.5 % DMSO. Cell viability was measured by MTT assay after a 48-h treatment and a 24-h proliferation period. Error bars represent the mean ± SEM of five independent repeats
(§1) For clonogenic assays, cells were treated with compound for 48 h, media were removed and replaced with fresh media for a further 12 days to measure colony formation. For cell viability assays, lymphoma cells were plated at 20,000 cells in 200 μl per well in U-bottom 96 well plates in RPMI medium +20 % FCS. Cells were re-suspended 48 h later, diluted 10-fold in PBS + propidium iodide (PI) and the concentration of PI negative cells was counted using an Attune flow cytometer with autosampler. Breast cancer cells were seeded at a density of 10,000 cells/well in a sterile 96 clear-well plate with 150 μl of DMEM (+10 % FCS and 2 mM L-Glutamine). Each compound treatment was performed in triplicate for 72 h at concentrations of 100 nM and 1, 5, 10 and 50 μM in 100 μl of full-medium. After 72 h, 20 μl of MTT solution (3 mg of MTT Formazan, Sigma/1 ml PBS) was added to the medium and incubated for 4 h at 37 °C in a CO2 incubator. The MTT-product was solubilised with 100 μl DMSO, and for 1 h, incubated in the dark at room temperature. The optical density was read at 570 nm with PHERAstar.

The next assay concerns DB. The assay can be described thus: Lymphoma cell growth, cell counting following propidium iodide staining. The following applies: Homo sapiens, EZH2 Mutant Y646N, 48 h, PI negative cell count. On the procedure: as §1
The next assay relates to DOHH2. The assay is described as above. The following applies: Homo sapiens, DOHH-2, EZH2 W.T., 48 h, PI negative cell count. The procedure:
as §1

For the next assay, the system named is SC1. Described as above. Conditions: Homo sapiens, SC-1, EZH2 W.T., 48 h, PI negative cell count. The procedure:
as §1

The next assay has as its system SUDLH8. Described as above. The following applies: EZH2 W.T. (amplified), 48 h, PI negative cell count. The procedure: as §1
For a further assay, the system named is WILL1. Described as above. The following applies: WILL-1, EZH2 W.T., 48 h, PI negative cell count. The procedure: as §1
For another assay, the system named is WSU-FSCLL. The assay is described as above. The following applies: EZH2 W.T., 48 h, PI negative cell count. The procedure:
as §1

In a further assay the test system is breast cancer cell lines. The assay can be described thus: MTT anti-proliferative effect on a small panel of breast cancer cell lines. The following applies: read-out: Anti-proliferative IC50 values, range over panel. On the procedure:
The anti-proliferative effect of HKMTI-1-005 on a small panel of breast cancer cell lines was determined, with IC50 values in the range 2–10 μM (Table 3). […] The breast cancer cell line BT-474, which is the cell line most sensitive to HKMTI-1-005 treatment, has the highest relative expression of EZH2, as detected by Western analysis (data not shown).
as §1, with “The MTT-product was solubilised with 100 μl DMSO, and for 1 h, incubated in the dark at room temperature.” left out

The test system of another assay is H3K27me3 and H3K9me3. The assay can be described thus: Western analysis of global histone marks in MDA-MB-231 cells. The following applies: range of doses. On the procedure: MDA-MB-231 cells seeded in 6 well plates at a cell density of 3 x 10^5 were treated with HKMTI-1-005 (1–7.5uM) for 48 h. Following lysis in Triton Extraction Buffer (TEB, PBS containing 0.5 % Triton ×100 (v/v), 1/1000 protease inhibitor), nuclei were re-suspended in 0.2 N HCL at a density of 4 x 10^7 nuclei per millilitre and incubated overnight at 4 °C to acid-extract the histones, before being centrifuged at 6500g for 10 min at 4 °C. Protein concentration was determined using the Bradford assay. H3K27me3, H3K9me3, H3K9me2, H3K9me and total H3 protein expression levels in the histone extract samples were determined using Western blot analysis using H3K27me3 (1:1000; Abcam), H3K9me3 (1:1000; Abcam), H3K9me (1:1000) and H3 (1:2000; Abcam) antibodies. After washing, the membrane was incubated with a horseradish peroxidase-labelled secondary antibody (1 h, room temperature). The membrane was incubated for 1 min with 5 mL of Pierce ECL Western blotting substrate (Thermo Scientific). Images were captured using Konica Minolta SRX101A Tabletop X-Ray film processor.

Molecules are shown by their SMILES. pIC50: −log10 of the molar value. Where two headings read alike, the source gives them in different places.

For the compound `COc1cc2nc(N3CCN(C)CC3)nc(NC3CCN(Cc4ccccc4)CC3)c2cc1OC` [HKMTI-1-005], the “SPINK1 expression upon treatment” value in the assay on SPINK1 is “increased”. Further, the pIC50 was 5.37 in the assay with MDA-MB-231 cells (MDA-MB-231, MTT (Table 3B), read-out: Cell growth IC50 MDA-MB-231); 5.37 in the assay on MDA-MB-231 cells (MDA-MB-231 (Table 2), read-out: Cell viability (MTT) IC50); greater than 6.00 with DB; 5.49 in the assay on DOHH2; 5.43 in the assay with SC1; greater than 6.00 with SUDLH8. The figures for the pIC50 in the assay on WILL1, in the assay with WSU-FSCLL and with breast cancer cell lines were 5.25, 5.47 and 5.00 to 5.70, respectively. The “Global levels of H3K27me3 and H3K9me3 (Western)” value with H3K27me3 and H3K9me3 was “reduced”.

In general, pIC50 refers to the negative decadic logarithm of the IC50, by convention in mol/L.
